# Experiments:
# dog hepatocytes = experiment: Metabolism and metabolite formation in hepatocytes; format: in vitro ADME, beagle dog; details: beagle dog hepatocytes, 10 µM BPI-460372, 4 h incubation
# Description: (§1) All the samples were duplicates.
# Stability in plasma [1] = format: in vitro ADME; details: monkey plasma, 37°C, 4 h
# [2] = set-up: method as in doi:10.1158/1538-7445.AM2024-7575; details: cited from earlier work
# TEAD proteins = test system: TEAD proteins; set-up: method as in doi:10.1158/1538-7445.AM2023-501; details: cited from earlier work
# Stability in plasma [3] = format: in vitro ADME; details: dog plasma, 37°C, 4 h
# In vivo clearance = details: monkeys
# CYP2D6 = CYP2D6 (Homo sapiens, UniProt P10635); experiment: Metabolic stability in HLMs with or without specific CYP inhibitor (quinidine); format: in vitro ADME; set-up: HLMs (1 mg protein·mL^-1); tissue BioIVT; host or cells: pooled human liver microsomes; details: HLMs 1 mg protein/mL, substrate 1 μM, quinidine 20 µM
# Sequence of CYP2D6 (P10635 whole entry): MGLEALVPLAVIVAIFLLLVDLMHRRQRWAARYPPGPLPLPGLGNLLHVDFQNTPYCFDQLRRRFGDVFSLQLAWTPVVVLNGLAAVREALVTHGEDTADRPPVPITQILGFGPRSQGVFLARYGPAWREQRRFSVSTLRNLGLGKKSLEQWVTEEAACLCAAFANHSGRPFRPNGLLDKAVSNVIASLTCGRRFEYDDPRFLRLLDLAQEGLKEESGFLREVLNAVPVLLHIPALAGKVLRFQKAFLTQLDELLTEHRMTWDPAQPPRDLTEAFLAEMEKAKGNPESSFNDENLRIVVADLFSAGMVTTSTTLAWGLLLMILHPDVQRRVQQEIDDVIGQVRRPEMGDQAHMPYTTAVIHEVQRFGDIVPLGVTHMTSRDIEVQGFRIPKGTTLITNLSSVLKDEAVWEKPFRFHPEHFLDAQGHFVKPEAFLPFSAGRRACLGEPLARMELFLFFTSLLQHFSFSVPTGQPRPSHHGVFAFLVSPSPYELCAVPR
# Procedure: (§2) Before starting the experiments, the HLMs were thawed gently on ice. Metabolic stability incubations were performed at 37 °C. The incubations contained 100 mM phosphate buffer saline (PBS, pH 7.4), HLMs (1 mg protein·mL^-1), dimethyl sulfoxide (DMSO, blank control) or a selective CYP inhibitor, and BPI-460372 or positive control substrates (final incubation concentration, 1 μM). The incubation process started with the addition of NADPH (1 mM final concentration) after a 5-minute preincubation period. The chemical inhibitors were as follows: a-naphthoflavone (2 µM) for CYP1A2, ticlopidine (20 µM) for 2B6, quercetin (20 µM) for CYP2C8, sulfaphenazole (20 µM) for CYP2C9, ticlopidine (200 µM) for CYP2C19, quinidine (20 µM) for CYP2D6, and ketoconazole (20 µM) for CYP3A [9]. Aliquots were maintained in acetonitrile containing internal standard (IS) at various time points, such as 0 min, 5 min, 10 min, 20 min, 30 min, and 60 min. All incubations were performed in triplicate, and the concentration in the supernatant was determined by liquid chromatography-tandem mass spectrometry (LC-MS/MS).
# (§3) The elimination rate constant k (min^-1) was obtained by linear regression from the natural logarithm of the […] of the parent drug and the incubation time. The inhibition rate was calculated using equation 1 [10]: […]
# monkey hepatocytes = experiment: Metabolism and metabolite formation in hepatocytes; format: in vitro ADME, cynomolgus monkey; details: cynomolgus monkey hepatocytes, 10 µM BPI-460372, 4 h incubation
# Description: as §1
# CYP2B6 = molecular target: T1, CYP2B6 (Homo sapiens, UniProt P20813); experiment: Metabolic stability in HLMs with or without specific CYP inhibitor (ticlopidine 20 µM); format: in vitro ADME; details: HLMs 1 mg protein/mL, substrate 1 μM
# T1 construct: HLMs (1 mg protein·mL^-1); tissue BioIVT; host or cells: pooled human liver microsomes
# T1 sequence (P20813 1-491): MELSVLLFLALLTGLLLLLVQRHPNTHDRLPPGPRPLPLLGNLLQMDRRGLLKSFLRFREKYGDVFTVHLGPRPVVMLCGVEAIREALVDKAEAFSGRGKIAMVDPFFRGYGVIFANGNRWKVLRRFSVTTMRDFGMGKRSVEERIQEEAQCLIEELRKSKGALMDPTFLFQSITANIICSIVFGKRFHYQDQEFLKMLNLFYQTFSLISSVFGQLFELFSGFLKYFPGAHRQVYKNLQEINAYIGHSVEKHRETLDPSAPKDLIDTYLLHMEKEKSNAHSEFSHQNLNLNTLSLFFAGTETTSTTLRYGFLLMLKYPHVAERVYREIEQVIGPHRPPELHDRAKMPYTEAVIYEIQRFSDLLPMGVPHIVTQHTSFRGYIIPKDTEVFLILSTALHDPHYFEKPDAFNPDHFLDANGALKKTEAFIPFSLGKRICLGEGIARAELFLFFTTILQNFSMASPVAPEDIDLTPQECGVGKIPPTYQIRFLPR
# Procedure: as §2, with “The incubations contained 100 mM phosphate buffer saline (PBS, pH 7.4), HLMs (1 mg protein·mL^-1), dimethyl sulfoxide (DMSO, blank control) or a selective CYP inhibitor, and BPI-460372 or positive control substrates (final incubation concentration, 1 μM).” left out
# as §3
compound,measurement,setting,value
C=C(F)C(=O)N1CC(n2c(=O)n(-c3ccc(C(F)(F)F)cc3)c3nccnc32)C1 [BPI-460372],UV (314 nm) Peak Areas Relative Abundance,dog hepatocytes,48.28%
same,Stability in plasma,Stability in plasma [1],stable
same,Preliminary efficacy,"[2]; patients with malignant mesothelioma, lung adenocarcinoma, and lung squamous cell carcinoma",preliminary efficacy was observed
same,Safety profile,[2]; solid tumor patients,good safety profile
same,Covalent binding to TEAD1/3/4,TEAD proteins; 2-fluoro acrylamide warhead,covalently bind to the Cys-368 residue
same,Off-target covalent binding,TEAD proteins,without significant off-target covalent binding affinity
same,Stability in plasma,Stability in plasma [3],stable
same,Clearance in vivo,In vivo clearance,low clearance
same,Inhibition Rate,CYP2D6,17.0%
same,UV (314 nm) Peak Areas Relative Abundance,monkey hepatocytes,63.98%
same,Inhibition Rate,CYP2B6,-11.5%

# Source: publication PMC12376128, “In vitro and In Vivo Drug Metabolism Analysis of BPI-460372 - A Covalent TEAD1/3/4 Inhibitor” (Current Drug Metabolism, 2025)
